The record followed here is patent publication US8852587B2 (priority 2008, dated 2014).

Read-outs that look alike come from different tables or passages of the source.

The target in this assay is PrP^Sc (Mus musculus, UniProt P04925). Type of assay: binding.
Setting [1] is: affinity for PrPSc pulldown compared to peptide LH3 (CDR3H).
The mark [2] stands for this setting: pull-down, compared to peptide LH3.
Where [3] appears, read: pull-down, compared to peptide LH3 (CDR3H).

Sequence of PrP^Sc (P04925 23-230 limits assumed): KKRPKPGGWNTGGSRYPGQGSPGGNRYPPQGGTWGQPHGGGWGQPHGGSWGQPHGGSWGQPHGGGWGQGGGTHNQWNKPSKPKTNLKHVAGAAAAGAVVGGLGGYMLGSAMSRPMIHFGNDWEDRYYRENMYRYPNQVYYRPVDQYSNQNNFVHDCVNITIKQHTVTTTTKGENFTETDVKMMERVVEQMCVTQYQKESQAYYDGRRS

For H-YFCARWNWERDAMDYWG-OH [CDR3H], the Affinity was 0 and the Specificity entry was “PrP^Sc”.
On to YFAARWNWERDAMDYWG [LH3A3], for which the Specificity entry is “PrP^Sc”.
Consider YFCAAWNWERDAMDYWG [LH3A5], for which the Specificity entry is on record as “PrP^Sc”.
For the substance YFCADWNWERDAMDYWG [LH3D5], the Specificity entry is recorded as “PrP^Sc” and the “change of affinity for PrP^Sc” value is “slightly decreases affinity for PrP^Sc”.
With YFCARANWERDAMDYWG [LH3A6], the Specificity result was “PrP^Sc”.
For the substance YFCARWAWERDAMDYWG [LH3A7], the Affinity result under setting [1] is on record as “(+)”. Besides, under setting [2], the “change of affinity for PrP^Sc” value is reported as “slightly increase affinity for PrP^Sc”. Under setting [3], the Specificity entry was “PrP^Sc”.
As to YFCARWNAERDAMDYWG [LH3A8], the Specificity result is “PrP^Sc”.
On the same count and under the same terms, to YFCARWNWARDAMDYWG [LH3A9] belongs “PrP^Sc”.
YFCARWNWEADAMDYWG [LH3A10]: the “Specificity” value runs as follows: under setting [2], “binds to PrP^C”; under setting [3], “PrP^C”.
For the substance YFCARWNWEDDAMDYWG [LH3D10], the Affinity result is reported as “(+)”, the Specificity result is on record as “PrP^Sc” and the “change of affinity for PrP^Sc” value was “slightly increase affinity for PrP^Sc”.
With YFCARWNWERAAMDYWG [LH3A11], the Specificity result is “PrP^Sc”.
With YFCARWNWERDAADYWG [LH3A13], the Affinity result under setting [1] is on record as “+”. In addition, under setting [2], the “change of affinity for PrP^Sc” value is “increase affinity for PrP^Sc”. Besides, the Specificity entry under setting [3] is given as “PrP^Sc”.
On the same counts, the results for YFCARWNWERDAMAYWG [LH3A14] are “(+)”, “slightly increase affinity for PrP^Sc” and “PrP^Sc”.
Regarding YFCARWNWERDAMDAWG [LH3A15], the Specificity result was “PrP^Sc”.
The same measure, in the same setting: then YFCARWNWERDAMRYWG [LH3R14], with “PrP^Sc”.
As for YFCARWNWERRAMDYWG [LH3R11], the Affinity entry under setting [1] is “+”. For the same substance, under setting [2], the “change of affinity for PrP^Sc” value was “increase affinity for PrP^Sc”. Besides, the Specificity entry under setting [3] was “PrP^Sc”.
For YFCARWNWRRDAMDYWG [LH3R9] the same measures were “(+)”, “slightly increase affinity for PrP^Sc” and “PrP^Sc”.
